Results as given in patent US7754654B2, “Substituted spirocyclic ketoenols” (Bayer CropScience AG, priority 2002, dated 2010).

Assays:
Type in all cases: in vivo
Galium = assay: Post-emergence test; details: 250 g of ai/ha, after three weeks
Experimental: (§1) To produce a suitable preparation of active compound, 1 part by weight of active compound is mixed with the stated amount of solvent, the stated amount of emulsifier is added and the concentrate is diluted with water to the desired concentration. Test plants of a height of 5-15 cm are sprayed with the preparation of active compound such that the particular amounts of active compound desired are applied per unit area. The concentration of the spray liquor is chosen such that the particular amounts of active compound desired are applied in 1000 l of water/ha. After three weeks, the degree of damage to the plants is rated in % damage in comparison to the development of the untreated control. The figures denote: • 0%=no effect (like untreated control) • 100%=total destruction

Alopecurus [1] = assay: Post-emergence test; details: 250 g of ai/ha, after three weeks
Experimental: as §1

Sinapis [2] = assay: Post-emergence test; details: 250 g of ai/ha, after three weeks
Experimental: as §1

Amaranthus [3] = assay: Post-emergence test; details: 250 g of ai/ha, after three weeks
Experimental: as §1

Abutilon = assay: Post-emergence test; details: 250 g of ai/ha, after three weeks
Experimental: as §1

Setaria [4] = assay: Pre-emergence test; details: 250 g of ai/ha, after three weeks
Experimental: (§2) To produce a suitable preparation of active compound, 1 part by weight of active compound is mixed with the stated amount of solvent, the stated amount of emulsifier is added and the concentrate is diluted with water to the desired concentration. Seeds of the test plants are sown in normal soil. After about 24 hours, the soil is sprayed with the preparation of active compound such that the particular amounts of active compound desired are applied per unit area. The concentration of the spray liquor is chosen such that the particular amounts of active compound desired are applied in 1000 l of water/ha. After three weeks, the degree of damage to the plants is rated in % damage in comparison to the development of the untreated control. The figures denote: • 0%=no effect (like untreated control) • 100%=total destruction

Alopecurus [5] = assay: Pre-emergence test; details: 250 g of ai/ha, after three weeks
Experimental: as §2

Echinochloa = assay: Pre-emergence test; details: 250 g of ai/ha, after three weeks
Experimental: as §2

Sinapis [6] = assay: Pre-emergence test; details: 250 g of ai/ha, after three weeks
Experimental: as §2

Avena fatua = assay: Pre-emergence test; details: 250 g of ai/ha, after three weeks
Experimental: as §2

Amaranthus [7] = assay: Pre-emergence test; details: 250 g of ai/ha, after three weeks
Experimental: as §2

Sugar beet [8] = assay: Pre-emergence test; details: 250 g of ai/ha, after three weeks
Experimental: as §2

[9] = system: larvae of the mustard beetle (Phaedon cochleariae); assay: Phaedon larvae test (cabbage leaf dip); details: 1000 ppm
Experimental: To produce a suitable preparation of active compound, 1 part by weight of active compound is mixed with the stated amounts of solvent and emulsifier, and the concentrate is diluted with emulsifier-containing water to the desired concentration. Cabbage leaves (Brassica oleracea) are treated by being dipped into the preparation of active compound of the desired concentration and are populated with larvae of the mustard beetle (Phaedon cochleariae) while the leaves are still moist. After the desired period of time, the kill in % is determined. 100% means that all beetle larvae have been killed; 0% means that none of the beetle larvae have been killed.

Setaria [10] = assay: Post-emergence test; details: 250 g of ai/ha, after three weeks
Experimental: as §1

Cyperus = assay: Post-emergence test; details: 250 g of ai/ha, after three weeks
Experimental: as §1

Sugar beet [11] = assay: Post-emergence test; details: 250 g of ai/ha, after three weeks
Experimental: as §1

SMILES | % damage (Galium) | % damage (Alopecurus [1]) | % damage (Sinapis [2]) | % damage (Amaranthus [3]) | % damage (Abutilon) | % damage (Setaria [4]) | % damage (Alopecurus [5]) | % damage (Echinochloa) | % damage (Sinapis [6]) | % damage (Avena fatua) | % damage (Amaranthus [7]) | % damage (Sugar beet [8]) | Kill rate in % after 7d [9] | % damage (Setaria [10]) | % damage (Cyperus) | % damage (Sugar beet [11])
Cc1cc(C)c(C2=C(O)C3(CCC(OCc4ccc(Cl)cc4)CC3)NC2=O)c(C)c1 (single isomer, unassigned) [Ex. I-1-a-27] | 70% | 90% | 80% | 90% | 80% |  |  |  |  |  |  |  |  |  |  | 
Cc1cc(C)c(C2=C(O)C3(CCC(OCC4CCCO4)CC3)NC2=O)c(C)c1 (single isomer, unassigned) [Ex. I-1-a-7] |  |  |  |  |  | 100% | 80% | 99% | 90% | 95% | 95% | 0% | 100% |  |  | 
Cc1cc(C)c(C2=C(OC(=O)C(C)C)C3(CCC(OCc4ccccc4)CC3)NC2=O)c(C)c1 (single isomer, unassigned) [Ex. I-1-b-2] |  | 80% | 70% |  |  |  |  |  |  |  |  |  |  | 95% | 80% | 0%
